Test results reported in PubChem BioAssay AID2060336 (Molecular Pharmacology Branch, DTP, NCI, 2025).

Tested on: 958767-090-R-J1-PDC spheroid growth
Experiment: Anticancer human tumor 958767-090-R-J1-PDC patient-derived head and neck squamous carcinoma cell line growth inhibition [IpAb]
Conditions: spheroids with HUVEC and MSC; for IC50: curve of first compound; for viability, T/C: stronger effect = lower value
Method in brief: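 Combinations with ipatasertib or abemaciclib were tested on tumour spheroids holding HUVEC (25%) and MSC (15%) alongside 60% malignant cells. Top concentration was at or near clinical Cmax (10 microM if undefined), descending in half-log steps.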

[1] = second compound 0.1 µM, first compound 0.0316 µM
[2] = second compound 0.1 µM, first compound 0.1 µM
[3] = second compound 0.316 µM, first compound 0.0316 µM
[4] = second compound 0.316 µM, first compound 0.1 µM
[5] = second compound 1 µM, first compound 0.0316 µM
[6] = second compound 1 µM, first compound 0.1 µM
[7] = second compound 3.16 µM, first compound 0.0316 µM
[8] = second compound 3.16 µM, first compound 0.1 µM
[9] = second compound 10 µM, first compound 0.0316 µM
[10] = second compound 10 µM, first compound 0.1 µM
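Further: spheroids exposed to agents for 7 days.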
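Wherever viability, T/C is given: 100% = DMSO vehicle control wells.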

In the case of `C=CC(=O)N1CCN(c2nc(=O)n(-c3c(C)ccnc3C(C)C)c3nc(-c4c(O)cccc4F)c(F)cc23)C(C)C1` (stereo not given) + CC(C)NCC(C(=O)N1CCN(c2ncnc3c2C(C)CC3O)CC1)c1ccc(Cl)cc1, the IC50 (second compound 0.1 µM) is reported as 5020 nM, the IC50 (second compound 0.316 µM) is reported as 1870 nM and the IC50 (second compound 1 µM) is reported as 835 nM. It also gave an IC50 (second compound 3.16 µM) of 1580 nM, an IC50 (second compound 10 µM) of 1050 nM and a viability, T/C [1] of 82%. For the same molecule, the viability, T/C [2] was 86.5%, the viability, T/C (second compound 0.1 µM, first compound 0.316 µM) was 84.4% and the viability, T/C (second compound 0.1 µM, first compound 1 µM) was 86.4%. It also gave a viability, T/C (second compound 0.1 µM, first compound 3.16 µM) of 59.9%, a viability, T/C (second compound 0.1 µM, first compound 10 µM) of 35.2% and a viability, T/C [3] of 78.5%. For the same molecule, the viability, T/C [4] was 71.1%, the viability, T/C (second compound 0.316 µM, first compound 0.316 µM) was 72.3% and the viability, T/C (second compound 0.316 µM, first compound 1 µM) was 54.7%. The viability, T/C (second compound 0.316 µM, first compound 3.16 µM) was 44.8%, the viability, T/C (second compound 0.316 µM, first compound 10 µM) was 28.7% and the viability, T/C [5] was 72.8%. It also gave a viability, T/C [6] of 57.4%, a viability, T/C (second compound 1 µM, first compound 0.316 µM) of 63.3% and a viability, T/C (second compound 1 µM, first compound 1 µM) of 48.4%. The viability, T/C (second compound 1 µM, first compound 3.16 µM) was 34%, the viability, T/C (second compound 1 µM, first compound 10 µM) was 19.2% and the viability, T/C [7] was 63.9%. The viability, T/C [8] was 66.9%, the viability, T/C (second compound 3.16 µM, first compound 0.316 µM) was 53.8% and the viability, T/C (second compound 3.16 µM, first compound 1 µM) was 54.5%. The viability, T/C (second compound 3.16 µM, first compound 3.16 µM) was 44.9%, the viability, T/C (second compound 3.16 µM, first compound 10 µM) was 16% and the viability, T/C [9] was 56.2%. It also gave a viability, T/C [10] of 54.6%, a viability, T/C (second compound 10 µM, first compound 0.316 µM) of 64.9% and a viability, T/C (second compound 10 µM, first compound 1 µM) of 48.1%. It also gave a viability, T/C (second compound 10 µM, first compound 3.16 µM) of 29.6% and a viability, T/C (second compound 10 µM, first compound 10 µM) of 5.8%.

`CC(C)(C)c1cnc(CSc2cnc(NC(=O)C3CCNCC3)s2)o1` + CC(C)NCC(C(=O)N1CCN(c2ncnc3c2C(C)CC3O)CC1)c1ccc(Cl)cc1 gave an IC50 (second compound 0.1 µM) of 119 nM, an IC50 (second compound 0.316 µM) of 115 nM and an IC50 (second compound 1 µM) of 95.7 nM. For the same molecule, the IC50 (second compound 3.16 µM) was 101 nM, the IC50 (second compound 10 µM) was 41 nM and the viability, T/C (second compound 0.1 µM, first compound 0.00949 µM) was 98.5%. It also gave a viability, T/C (second compound 0.1 µM, first compound 0.03 µM) of 95.1%, a viability, T/C (second compound 0.1 µM, first compound 0.0949 µM) of 61.2% and a viability, T/C (second compound 0.1 µM, first compound 0.3 µM) of 3.88%. The viability, T/C (second compound 0.1 µM, first compound 0.949 µM) was 2.72%, the viability, T/C (second compound 0.1 µM, first compound 3 µM) was 2.41% and the viability, T/C (second compound 0.316 µM, first compound 0.00949 µM) was 80.6%. For the same molecule, the viability, T/C (second compound 0.316 µM, first compound 0.03 µM) was 82.5%, the viability, T/C (second compound 0.316 µM, first compound 0.0949 µM) was 59.5% and the viability, T/C (second compound 0.316 µM, first compound 0.3 µM) was 2.24%. For the same molecule, the viability, T/C (second compound 0.316 µM, first compound 0.949 µM) was 2.31%, the viability, T/C (second compound 0.316 µM, first compound 3 µM) was 2.18% and the viability, T/C (second compound 1 µM, first compound 0.00949 µM) was 72%. It also gave a viability, T/C (second compound 1 µM, first compound 0.03 µM) of 68%, a viability, T/C (second compound 1 µM, first compound 0.0949 µM) of 50.4% and a viability, T/C (second compound 1 µM, first compound 0.3 µM) of 1.77%. For the same molecule, the viability, T/C (second compound 1 µM, first compound 0.949 µM) was 1.65%, the viability, T/C (second compound 1 µM, first compound 3 µM) was 2.3% and the viability, T/C (second compound 3.16 µM, first compound 0.00949 µM) was 63.6%. For the same molecule, the viability, T/C (second compound 3.16 µM, first compound 0.03 µM) was 62.9%, the viability, T/C (second compound 3.16 µM, first compound 0.0949 µM) was 52.6% and the viability, T/C (second compound 3.16 µM, first compound 0.3 µM) was 1.26%. For the same molecule, the viability, T/C (second compound 3.16 µM, first compound 0.949 µM) was 1.8%, the viability, T/C (second compound 3.16 µM, first compound 3 µM) was 1.85% and the viability, T/C (second compound 10 µM, first compound 0.00949 µM) was 52.6%. The viability, T/C (second compound 10 µM, first compound 0.03 µM) was 68.9%, the viability, T/C (second compound 10 µM, first compound 0.0949 µM) was 21.1% and the viability, T/C (second compound 10 µM, first compound 0.3 µM) was 1.62%. It also gave a viability, T/C (second compound 10 µM, first compound 0.949 µM) of 1.38% and a viability, T/C (second compound 10 µM, first compound 3 µM) of 1.87%.

Molecule `Cn1ncnc1[C@H]1c2n[nH]c(=O)c3cc(F)cc(c23)N[C@@H]1c1ccc(F)cc1` + CC(C)NCC(C(=O)N1CCN(c2ncnc3c2C(C)CC3O)CC1)c1ccc(Cl)cc1 has an IC50 (second compound 0.1 µM) greater than 100 nM, an IC50 (second compound 0.316 µM) greater than 100 nM and an IC50 (second compound 1 µM) greater than 100 nM. For the same molecule, the IC50 (second compound 3.16 µM) was greater than 100 nM, the IC50 (second compound 10 µM) was 51.3 nM and the viability, T/C (second compound 0.1 µM, first compound 0.000316 µM) was 91.5%. It also gave a viability, T/C (second compound 0.1 µM, first compound 0.001 µM) of 87.8%, a viability, T/C (second compound 0.1 µM, first compound 0.00316 µM) of 91.2% and a viability, T/C (second compound 0.1 µM, first compound 0.01 µM) of 83.7%. The viability, T/C [1] was 87.4%, the viability, T/C [2] was 73% and the viability, T/C (second compound 0.316 µM, first compound 0.000316 µM) was 70%. The viability, T/C (second compound 0.316 µM, first compound 0.001 µM) was 77.4%, the viability, T/C (second compound 0.316 µM, first compound 0.00316 µM) was 74.7% and the viability, T/C (second compound 0.316 µM, first compound 0.01 µM) was 86.8%. The viability, T/C [3] was 77.6%, the viability, T/C [4] was 65.8% and the viability, T/C (second compound 1 µM, first compound 0.000316 µM) was 69.5%. It also gave a viability, T/C (second compound 1 µM, first compound 0.001 µM) of 63.9%, a viability, T/C (second compound 1 µM, first compound 0.00316 µM) of 72.2% and a viability, T/C (second compound 1 µM, first compound 0.01 µM) of 74.2%. It also gave a viability, T/C [5] of 62.4%, a viability, T/C [6] of 56.4% and a viability, T/C (second compound 3.16 µM, first compound 0.000316 µM) of 65%. The viability, T/C (second compound 3.16 µM, first compound 0.001 µM) was 52.6%, the viability, T/C (second compound 3.16 µM, first compound 0.00316 µM) was 58.8% and the viability, T/C (second compound 3.16 µM, first compound 0.01 µM) was 70.2%. It also gave a viability, T/C [7] of 62.4%, a viability, T/C [8] of 59.3% and a viability, T/C (second compound 10 µM, first compound 0.000316 µM) of 63.3%. The viability, T/C (second compound 10 µM, first compound 0.001 µM) was 55.3%, the viability, T/C (second compound 10 µM, first compound 0.00316 µM) was 58.1% and the viability, T/C (second compound 10 µM, first compound 0.01 µM) was 58.4%. It also gave a viability, T/C [9] of 56% and a viability, T/C [10] of 42%.
